≈ marks a conversion by molar mass, not a printed value. Calls of active or inactive are those of the source. No cut-off for these calls is given here.
How the values were obtained:
[1] = target: Protein cereblon/Stimulator of interferon genes protein (Homo sapiens, UniProt Q96SW2+Q86WV6); experiment: PROTAC activity at CRBN/STING in human THP-1 cells assessed as induction of STING degradation at 5 uM measured after 24 hrs by Western blotting analysis relative to control; assay type: cell-based
[2] = target: von Hippel-Lindau disease tumor suppressor/Stimulator of interferon genes protein (Homo sapiens, UniProt P40337+Q86WV6); experiment: PROTAC activity at VHL/STING (unknown origin); assay type: protein assay
Sequence of von Hippel-Lindau disease tumor suppressor/Stimulator of interferon genes protein (P40337 whole entry): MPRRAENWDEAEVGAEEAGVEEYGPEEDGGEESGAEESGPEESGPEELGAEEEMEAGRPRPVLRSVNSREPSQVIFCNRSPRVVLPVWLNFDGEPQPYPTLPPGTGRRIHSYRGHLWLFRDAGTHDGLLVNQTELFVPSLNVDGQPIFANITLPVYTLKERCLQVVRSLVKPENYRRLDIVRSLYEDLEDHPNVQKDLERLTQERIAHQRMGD
Sequence of von Hippel-Lindau disease tumor suppressor/Stimulator of interferon genes protein (Q86WV6 whole entry): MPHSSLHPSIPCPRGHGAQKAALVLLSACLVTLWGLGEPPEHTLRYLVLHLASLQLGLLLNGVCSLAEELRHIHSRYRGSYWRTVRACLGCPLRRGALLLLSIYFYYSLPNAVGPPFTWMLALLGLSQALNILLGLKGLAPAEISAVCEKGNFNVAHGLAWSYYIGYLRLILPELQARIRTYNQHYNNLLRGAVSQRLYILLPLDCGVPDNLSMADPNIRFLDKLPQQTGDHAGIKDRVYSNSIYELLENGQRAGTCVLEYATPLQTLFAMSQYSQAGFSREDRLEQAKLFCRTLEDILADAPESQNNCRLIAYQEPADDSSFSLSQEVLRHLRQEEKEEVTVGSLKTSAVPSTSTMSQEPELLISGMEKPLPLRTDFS

[3] = Water solubility of the compound at 2 mg by HPLC analysis; assay type: physicochemical
[4] = Metabolic stability in human liver microsomes assessed as half life; assay type: ADME, Microsome
[5] = Metabolic stability in human liver microsomes assessed as metabolic factor relative to control; assay type: ADME, Microsome
[6] = Metabolic stability in human liver microsomes assessed as intrinsic clearance per gram of protein; assay type: ADME, Microsome

Sequence of Protein cereblon/Stimulator of interferon genes protein (Q86WV6 whole entry, looked up): as the sequence (Q86WV6 whole entry) above
Sequence of Protein cereblon/Stimulator of interferon genes protein (Q96SW2 whole entry, looked up): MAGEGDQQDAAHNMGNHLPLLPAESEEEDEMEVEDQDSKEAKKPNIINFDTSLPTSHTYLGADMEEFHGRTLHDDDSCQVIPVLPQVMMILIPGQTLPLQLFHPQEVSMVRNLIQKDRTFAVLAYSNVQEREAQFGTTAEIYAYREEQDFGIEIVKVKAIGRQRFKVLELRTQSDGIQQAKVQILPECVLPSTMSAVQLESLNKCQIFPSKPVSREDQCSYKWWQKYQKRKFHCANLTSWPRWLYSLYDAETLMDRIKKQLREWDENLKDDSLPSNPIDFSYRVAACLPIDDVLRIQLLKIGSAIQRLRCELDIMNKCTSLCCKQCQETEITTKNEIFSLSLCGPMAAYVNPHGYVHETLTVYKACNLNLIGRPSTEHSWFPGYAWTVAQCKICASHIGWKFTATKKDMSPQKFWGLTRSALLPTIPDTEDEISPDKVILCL

Compound | Activity [1] | further results
O=C(/C=C/C(=O)N1CCN(CC2CCN(c3ccc4c(c3)C(=O)N(C3CCC(=O)NC3=O)C4=O)CC2)CC1)Nc1ccc(NC(=O)c2ccc([N+](=O)[O-])o2)cc1 (stereo not drawn) | 63.6% | –
O=C1CCC(N2C(=O)c3cccc(N4CCC(CN5CCN(C(=O)CCC(=O)Nc6ccc(NC(=O)c7ccc([N+](=O)[O-])o7)cc6)CC5)C4)c3C2=O)C(=O)N1 (stereo not drawn) | 44.7% | –
O=C(/C=C/C(=O)N1CCN(c2cccc3c2C(=O)N(C2CCC(=O)NC2=O)C3=O)CC1)Nc1ccc(NC(=O)c2ccc([N+](=O)[O-])o2)cc1 (stereo not drawn) | 20.3% | –
CCn1nc(C)cc1C(=O)Nc1nc2cc(C(=O)NCCCCCCCCC(=O)N[C@@H](C(=O)N3C[C@H](O)C[C@H]3C(=O)NCc3ccc(-c4scnc4C)cc3)C(C)(C)C)cc(OC)c2n1C/C=C/Cn1c(NC(=O)c2cc(C)nn2CC)nc2cc(C(N)=O)cc(OCCCN3CCOCC3)c21 | – | DC50 [2]: 227 nM
O=C(/C=C/C(=O)N1CCN(C2CCN(c3cccc4c3C(=O)N(C3CCC(=O)NC3=O)C4=O)C2)CC1)Nc1ccc(NC(=O)c2ccc([N+](=O)[O-])o2)cc1 (stereo not drawn) | 58% | solubility [3]: 6.098 µg/mL (≈ 8.25 µM)
O=C(/C=C/C(=O)Nc1ccc(NC(=O)c2ccc([N+](=O)[O-])o2)cc1)NCCCCCCNc1cccc2c1C(=O)N(C1CCC(=O)NC1=O)C2=O (stereo not drawn) | 59.2% | solubility [3]: 0.854 µg/mL (≈ 1.22 µM); half-life [4]: 1.41 min; Activity [5]: 1.3%; CLint [6]: 1490 mL/min/g
O=C1CCC(N2C(=O)c3cccc(N4CCN(CC5CCN(C(=O)COCC(=O)Nc6ccc(NC(=O)c7ccc([N+](=O)[O-])o7)cc6)CC5)CC4)c3C2=O)C(=O)N1 (stereo not drawn) | 32.6% | –
O=C(/C=C/C(=O)N1CCC(CN2CCN(c3cccc4c3C(=O)N(C3CCC(=O)NC3=O)C4=O)CC2)CC1)Nc1ccc(NC(=O)c2ccc([N+](=O)[O-])o2)cc1 (stereo not drawn) | 71.1% | solubility [3]: 1.562 µg/mL (≈ 2.04 µM)
O=C(/C=C/C(=O)N1CCN(CC2CCCN2c2ccc3c(c2)C(=O)N(C2CCC(=O)NC2=O)C3=O)CC1)Nc1ccc(NC(=O)c2ccc([N+](=O)[O-])o2)cc1 (stereo not drawn) | 72.3% | –
O=C1CCC(N2C(=O)c3cccc(N4CCN(CC5CCN(C(=O)CCC(=O)Nc6ccc(NC(=O)c7ccc([N+](=O)[O-])o7)cc6)CC5)CC4)c3C2=O)C(=O)N1 (stereo not drawn) | inactive | –
O=C1CCC(N2C(=O)c3cccc(N4CCN(CC5CN(C(=O)COCC(=O)Nc6ccc(NC(=O)c7ccc([N+](=O)[O-])o7)cc6)C5)CC4)c3C2=O)C(=O)N1 (stereo not drawn) | inactive | –
O=C(/C=C/C(=O)N1CCN(CC2CCN(c3cccc4c3C(=O)N(C3CCC(=O)NC3=O)C4=O)CC2)CC1)Nc1ccc(NC(=O)c2ccc([N+](=O)[O-])o2)cc1 (stereo not drawn) | 43.6% | –
O=C1CCC(N2C(=O)c3cccc(N4CCN(CC5CCN(C(=O)CCCC(=O)Nc6ccc(NC(=O)c7ccc([N+](=O)[O-])o7)cc6)CC5)CC4)c3C2=O)C(=O)N1 (stereo not drawn) | inactive | –
Cc1ncsc1-c1ccc(CNC(=O)[C@@H]2C[C@@H](O)CN2C(=O)[C@@H](NC(=O)CCC(=O)NCCCNC(=O)c2cccc(S(=O)(=O)n3cc(C(=O)NCCCCCC(=O)Oc4ccc(NC(=O)c5ccc(-c6ccccc6)cc5)cc4NS(=O)(=O)c4ccc(F)cc4)ccc3=O)c2)C(C)(C)C)cc1 | – | DC50 [2]: 530 nM
O=C1CCC(N2C(=O)c3cccc(N4CCN(CC5CN(C(=O)CCC(=O)Nc6ccc(NC(=O)c7ccc([N+](=O)[O-])o7)cc6)C5)CC4)c3C2=O)C(=O)N1 (stereo not drawn) | 40.7% | –
O=C1CCC(N2C(=O)c3cccc(N4CCN(CC5CN(C(=O)CCCC(=O)Nc6ccc(NC(=O)c7ccc([N+](=O)[O-])o7)cc6)C5)CC4)c3C2=O)C(=O)N1 (stereo not drawn) | inactive | –
O=C(/C=C/C(=O)N1CCN(C2CCN(c3cccc4c3C(=O)N(C3CCC(=O)NC3=O)C4=O)CC2)CC1)Nc1ccc(NC(=O)c2ccc([N+](=O)[O-])o2)cc1 (stereo not drawn) | 25.3% | –
O=C(/C=C/C(=O)N1CCN(CC2CCN(c3ccc4c(c3)C(=O)N(C3CCC(=O)NC3=O)C4=O)C2)CC1)Nc1ccc(NC(=O)c2ccc([N+](=O)[O-])o2)cc1 (stereo not drawn) | 73.6% | –

Further lines, with some results ahead:

Activity [1] | Compound | further results
36.3% | O=C1CCC(N2C(=O)c3cccc(N4CCC(CN5CCN(C(=O)CCCC(=O)Nc6ccc(NC(=O)c7ccc([N+](=O)[O-])o7)cc6)CC5)C4)c3C2=O)C(=O)N1 (stereo not drawn) | –
inactive | O=C1CCC(N2C(=O)c3cccc(N4CCC(CN5CCN(C(=O)COCC(=O)Nc6ccc(NC(=O)c7ccc([N+](=O)[O-])o7)cc6)CC5)C4)c3C2=O)C(=O)N1 (stereo not drawn) | –
43.6% | O=C(/C=C/C(=O)N1CC(CN2CCN(c3cccc4c3C(=O)N(C3CCC(=O)NC3=O)C4=O)CC2)C1)Nc1ccc(NC(=O)c2ccc([N+](=O)[O-])o2)cc1 (stereo not drawn) | solubility [3]: 6.485 µg/mL (≈ 8.78 µM)
inactive | O=C1CCC(N2C(=O)c3cccc(N4CCC(N5CCN(C(=O)COCC(=O)Nc6ccc(NC(=O)c7ccc([N+](=O)[O-])o7)cc6)CC5)C4)c3C2=O)C(=O)N1 (stereo not drawn) | –
52.3% | O=C(/C=C/C(=O)N1CCC(CN2CCN(c3ccc4c(c3)C(=O)N(C3CCC(=O)NC3=O)C4=O)CC2)CC1)Nc1ccc(NC(=O)c2ccc([N+](=O)[O-])o2)cc1 (stereo not drawn) | –
40.5% | O=C1CCC(N2C(=O)c3cccc(N4CCC(N5CCN(C(=O)CCCC(=O)Nc6ccc(NC(=O)c7ccc([N+](=O)[O-])o7)cc6)CC5)C4)c3C2=O)C(=O)N1 (stereo not drawn) | –
inactive | O=C(/C=C/C(=O)N1CCC(N2CCN(c3cccc4c3C(=O)N(C3CCC(=O)NC3=O)C4=O)CC2)CC1)Nc1ccc(NC(=O)c2ccc([N+](=O)[O-])o2)cc1 (stereo not drawn) | –
77.7% | O=C(/C=C/C(=O)N1CCN(CC2CCCN2c2cccc3c2C(=O)N(C2CCC(=O)NC2=O)C3=O)CC1)Nc1ccc(NC(=O)c2ccc([N+](=O)[O-])o2)cc1 (stereo not drawn) | solubility [3]: 2.872 µg/mL (≈ 3.82 µM)
inactive | O=C(/C=C/C(=O)N1CCN(C2CCN(c3ccc4c(c3)C(=O)N(C3CCC(=O)NC3=O)C4=O)C2)CC1)Nc1ccc(NC(=O)c2ccc([N+](=O)[O-])o2)cc1 (stereo not drawn) | –
inactive | O=C(/C=C/C(=O)N1CC(CN2CCN(c3ccc4c(c3)C(=O)N(C3CCC(=O)NC3=O)C4=O)CC2)C1)Nc1ccc(NC(=O)c2ccc([N+](=O)[O-])o2)cc1 (stereo not drawn) | –
inactive | O=C1CCC(N2C(=O)c3cccc(N4CCC(N5CCN(C(=O)CCC(=O)Nc6ccc(NC(=O)c7ccc([N+](=O)[O-])o7)cc6)CC5)C4)c3C2=O)C(=O)N1 (stereo not drawn) | –
30.3% | O=C(/C=C/C(=O)N1CC(N2CCN(c3cccc4c3C(=O)N(C3CCC(=O)NC3=O)C4=O)CC2)C1)Nc1ccc(NC(=O)c2ccc([N+](=O)[O-])o2)cc1 (stereo not drawn) | –

— ChEMBL document CHEMBL6182863, “Discovery of novel rigid STING PROTAC degraders as potential therapeutics for acute kidney injury” (Eur J Med Chem, 2025)
